This is an account of results in ChEMBL document CHEMBL1201862, “PubChem BioAssay data set” (2004).

The target in experiment [1] is T1, Exodeoxyribonuclease V (Escherichia coli (strain K12), UniProt P04993+P07648+P08394).
T1 sequence (P04993 whole entry): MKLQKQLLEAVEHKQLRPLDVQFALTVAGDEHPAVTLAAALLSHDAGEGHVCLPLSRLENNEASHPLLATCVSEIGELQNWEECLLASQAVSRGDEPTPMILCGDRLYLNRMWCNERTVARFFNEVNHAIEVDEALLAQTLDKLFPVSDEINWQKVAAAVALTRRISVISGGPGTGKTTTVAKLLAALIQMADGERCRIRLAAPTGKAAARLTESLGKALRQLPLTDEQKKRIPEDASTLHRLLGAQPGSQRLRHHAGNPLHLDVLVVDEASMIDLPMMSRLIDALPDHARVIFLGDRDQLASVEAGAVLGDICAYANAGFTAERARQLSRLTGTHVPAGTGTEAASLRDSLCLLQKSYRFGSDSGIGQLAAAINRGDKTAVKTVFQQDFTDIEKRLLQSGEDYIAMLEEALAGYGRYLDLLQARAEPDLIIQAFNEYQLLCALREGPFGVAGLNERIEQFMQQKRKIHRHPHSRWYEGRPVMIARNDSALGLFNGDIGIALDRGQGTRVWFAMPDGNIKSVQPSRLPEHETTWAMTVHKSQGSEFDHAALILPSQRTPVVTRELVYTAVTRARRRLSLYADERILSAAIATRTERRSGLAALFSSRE
T1 sequence (P07648 whole entry): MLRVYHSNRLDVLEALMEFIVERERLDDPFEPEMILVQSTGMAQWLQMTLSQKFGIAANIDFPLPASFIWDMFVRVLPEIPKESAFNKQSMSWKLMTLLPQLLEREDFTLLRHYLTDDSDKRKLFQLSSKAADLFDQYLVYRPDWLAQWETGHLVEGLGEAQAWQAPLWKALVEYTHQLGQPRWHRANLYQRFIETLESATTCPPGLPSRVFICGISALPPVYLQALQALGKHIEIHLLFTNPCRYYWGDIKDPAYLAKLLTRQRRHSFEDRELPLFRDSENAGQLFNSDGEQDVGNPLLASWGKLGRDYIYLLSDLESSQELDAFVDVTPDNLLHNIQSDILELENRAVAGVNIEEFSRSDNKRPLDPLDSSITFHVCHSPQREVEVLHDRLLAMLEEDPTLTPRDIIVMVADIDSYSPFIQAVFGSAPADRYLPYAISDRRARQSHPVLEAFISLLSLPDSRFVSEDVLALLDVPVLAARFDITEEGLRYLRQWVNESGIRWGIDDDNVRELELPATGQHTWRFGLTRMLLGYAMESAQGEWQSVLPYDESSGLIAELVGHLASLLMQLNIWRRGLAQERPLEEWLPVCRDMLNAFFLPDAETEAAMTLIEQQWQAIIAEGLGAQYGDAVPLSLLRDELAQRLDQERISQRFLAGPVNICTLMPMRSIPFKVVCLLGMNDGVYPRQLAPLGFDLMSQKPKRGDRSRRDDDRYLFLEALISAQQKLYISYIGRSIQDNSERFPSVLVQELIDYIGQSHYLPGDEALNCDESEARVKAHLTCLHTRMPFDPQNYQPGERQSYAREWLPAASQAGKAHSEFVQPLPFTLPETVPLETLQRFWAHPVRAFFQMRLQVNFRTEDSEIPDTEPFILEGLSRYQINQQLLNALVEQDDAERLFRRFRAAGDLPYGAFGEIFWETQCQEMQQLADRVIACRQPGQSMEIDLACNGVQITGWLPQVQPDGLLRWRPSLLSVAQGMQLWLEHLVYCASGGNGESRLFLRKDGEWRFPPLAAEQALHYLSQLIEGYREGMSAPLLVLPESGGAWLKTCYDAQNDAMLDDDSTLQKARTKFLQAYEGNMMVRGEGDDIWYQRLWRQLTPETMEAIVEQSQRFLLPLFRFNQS
T1 sequence (P08394 whole entry): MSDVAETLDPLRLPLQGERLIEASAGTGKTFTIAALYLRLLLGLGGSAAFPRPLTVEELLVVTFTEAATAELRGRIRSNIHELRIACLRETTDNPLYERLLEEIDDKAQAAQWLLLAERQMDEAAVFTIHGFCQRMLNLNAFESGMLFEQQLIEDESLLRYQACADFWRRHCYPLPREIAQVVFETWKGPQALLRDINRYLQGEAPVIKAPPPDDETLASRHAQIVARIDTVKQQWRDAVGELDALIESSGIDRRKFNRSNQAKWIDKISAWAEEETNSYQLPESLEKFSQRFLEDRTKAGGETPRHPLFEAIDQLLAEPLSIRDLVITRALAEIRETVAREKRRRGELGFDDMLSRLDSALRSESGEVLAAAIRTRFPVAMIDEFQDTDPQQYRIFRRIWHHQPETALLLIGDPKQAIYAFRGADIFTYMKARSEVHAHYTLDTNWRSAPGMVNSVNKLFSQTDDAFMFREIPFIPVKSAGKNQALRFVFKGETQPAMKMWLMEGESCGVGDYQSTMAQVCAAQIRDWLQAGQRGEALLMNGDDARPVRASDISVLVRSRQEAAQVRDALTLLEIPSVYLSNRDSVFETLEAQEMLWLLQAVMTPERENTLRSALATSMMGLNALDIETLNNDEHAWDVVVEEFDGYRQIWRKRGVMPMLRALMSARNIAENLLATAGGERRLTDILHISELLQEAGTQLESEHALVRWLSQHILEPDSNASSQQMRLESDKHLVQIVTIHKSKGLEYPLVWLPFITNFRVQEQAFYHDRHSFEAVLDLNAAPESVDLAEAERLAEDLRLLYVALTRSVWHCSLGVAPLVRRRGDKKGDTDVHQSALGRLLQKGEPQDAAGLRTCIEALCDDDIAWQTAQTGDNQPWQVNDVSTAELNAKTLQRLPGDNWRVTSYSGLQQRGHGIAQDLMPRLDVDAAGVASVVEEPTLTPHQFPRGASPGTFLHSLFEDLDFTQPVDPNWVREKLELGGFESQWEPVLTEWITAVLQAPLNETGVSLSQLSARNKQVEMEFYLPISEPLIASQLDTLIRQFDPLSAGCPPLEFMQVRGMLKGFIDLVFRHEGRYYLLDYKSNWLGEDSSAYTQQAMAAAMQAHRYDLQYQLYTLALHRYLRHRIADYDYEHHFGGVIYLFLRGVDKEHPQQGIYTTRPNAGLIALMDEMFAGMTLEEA
Briefly: E. coli RecBCD inhibitors, dose response, counter-screen for AddAB inhibitor project, absorbance, V66 E. coli, mutant T4 phage (AID 492957). Type of experiment: functional, cell-based, Escherichia coli str. K-12 substr. MG1655. (In general: The purpose of a counterscreen is to sort out artefacts and off-target activity.)

Experiment [2] can be described thus: Counterscreen for AddAB inhibitors: absorbance-based bacterial cell-based high throughput dose response assay for inhibitors of bacterial viability. [Related pubchem assays (depositor defined):AID435030, AID449728, AID449731, AID488942, AID488955, AID488956]. In kind it is functional.
A short description of experiment [3]: cytotoxicity in MIN6 insulinoma cells, dose response, cytotoxicity control, cell-based, mouse insulinoma (AID 2122).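 Note: confirmatory high-throughput counterscreen run to flag cytotoxic compounds; mouse MIN-6 beta cells carrying an insulin promoter eGFP reporter.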 Type of experiment: functional.
Experiment [4] in a line: insulin promoter down-regulators in MIN6 cells, imaging, high-content screening, mouse beta cells (AID 1628). In kind it is functional.
Experiment [5] deals with Genome polyprotein (dengue virus type 2, UniProt P29990). Kind of experiment: Dengue-2 NS5 methyltransferase inhibitors, primary screen, biochemical, confirmation dose response (AID 588689). Type of experiment: functional.
Sequence of Genome polyprotein (P29990 2492-3391 limits assumed): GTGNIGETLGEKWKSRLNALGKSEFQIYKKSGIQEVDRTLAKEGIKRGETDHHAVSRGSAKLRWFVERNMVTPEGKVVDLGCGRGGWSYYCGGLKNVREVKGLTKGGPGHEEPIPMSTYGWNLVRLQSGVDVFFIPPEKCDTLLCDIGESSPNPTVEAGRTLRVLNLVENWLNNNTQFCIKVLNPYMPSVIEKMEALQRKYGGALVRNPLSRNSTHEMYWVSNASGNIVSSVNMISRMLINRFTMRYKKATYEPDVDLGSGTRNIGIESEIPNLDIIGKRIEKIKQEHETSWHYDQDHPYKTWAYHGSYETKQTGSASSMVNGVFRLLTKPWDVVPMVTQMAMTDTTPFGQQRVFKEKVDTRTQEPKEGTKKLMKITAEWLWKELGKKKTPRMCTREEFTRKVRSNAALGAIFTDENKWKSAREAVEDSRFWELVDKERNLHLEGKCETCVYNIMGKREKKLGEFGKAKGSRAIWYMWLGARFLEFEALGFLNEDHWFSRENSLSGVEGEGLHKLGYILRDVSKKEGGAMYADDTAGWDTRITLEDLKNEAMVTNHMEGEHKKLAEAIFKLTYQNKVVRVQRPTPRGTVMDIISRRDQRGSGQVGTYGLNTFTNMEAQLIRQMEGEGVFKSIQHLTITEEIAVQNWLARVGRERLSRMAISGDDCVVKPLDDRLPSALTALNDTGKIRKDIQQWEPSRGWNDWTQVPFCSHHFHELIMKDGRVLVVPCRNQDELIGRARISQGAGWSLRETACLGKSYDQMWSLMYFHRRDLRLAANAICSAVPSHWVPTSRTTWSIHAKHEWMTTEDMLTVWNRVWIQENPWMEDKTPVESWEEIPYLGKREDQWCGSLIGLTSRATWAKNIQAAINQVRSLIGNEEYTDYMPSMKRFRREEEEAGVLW
Experiment [6] addresses Keap1/Nrf2 (Homo sapiens, UniProt Q14145). Kind of experiment: Keap1-Nrf2 protein-protein interaction inhibitors, dose response, biochemical, fluorescence polarization, cherry-picked samples (AID 588683). (In general: In fluorescence polarisation assays a small probe gives low polarisation when free and higher when bound to something large.)
The target in experiment [7] is T2, Zinc finger protein mex-5 (Caenorhabditis elegans, UniProt Q9XUB2).
T2 sequence (Q9XUB2 whole entry): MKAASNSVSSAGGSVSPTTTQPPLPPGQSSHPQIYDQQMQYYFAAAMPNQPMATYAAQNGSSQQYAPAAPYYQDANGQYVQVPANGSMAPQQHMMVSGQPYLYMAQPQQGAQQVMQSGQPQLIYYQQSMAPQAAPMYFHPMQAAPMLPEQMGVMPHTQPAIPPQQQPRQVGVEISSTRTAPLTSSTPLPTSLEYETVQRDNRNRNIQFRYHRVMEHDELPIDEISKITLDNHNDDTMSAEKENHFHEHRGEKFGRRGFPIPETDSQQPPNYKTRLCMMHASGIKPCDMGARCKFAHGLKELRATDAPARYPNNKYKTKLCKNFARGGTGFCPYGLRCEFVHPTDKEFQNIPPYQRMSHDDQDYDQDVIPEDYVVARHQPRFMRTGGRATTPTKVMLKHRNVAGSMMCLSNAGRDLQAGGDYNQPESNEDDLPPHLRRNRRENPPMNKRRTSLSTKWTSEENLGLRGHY
Briefly: MEX-5/TCR-2 RNA interaction inhibitors, dose response, biochemical, C. elegans, fluorescence polarization (AID 1960).

In experiment [8] the target is T3, RNA-binding protein pos-1 (Caenorhabditis elegans, UniProt G5EF15).
T3 sequence (G5EF15 whole entry): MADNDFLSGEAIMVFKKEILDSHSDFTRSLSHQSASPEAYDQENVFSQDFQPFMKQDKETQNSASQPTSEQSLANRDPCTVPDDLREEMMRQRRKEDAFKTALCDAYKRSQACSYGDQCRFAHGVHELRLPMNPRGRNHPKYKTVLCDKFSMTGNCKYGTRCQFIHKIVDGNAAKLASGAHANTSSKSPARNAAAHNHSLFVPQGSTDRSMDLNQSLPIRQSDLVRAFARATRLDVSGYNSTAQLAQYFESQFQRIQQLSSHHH
Briefly: inhibitors of POS-1/mex-3 RNA binding, dose response, biochemical, fluorescence polarization (AID 1964).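 Note: purified POS-1 fused to maltose binding protein made in E. coli; potency of compounds blocking POS-1 binding to fluorescent RNA.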

The test system of experiment [9] is HEK293. Kind of experiment: cells. Particulars: Homo sapiens.
Experiment [10] relates to HEK293. Briefly: cells. The settings on record: Homo sapiens. This is another data set of the same source.
Experiment [11] can be described thus: cytotoxicity toward NIH3T3 fibroblasts, dose response, counter-screen, cell-based, ATP luminescence, mouse fibroblasts (AID 2010).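 Note: cells exposed to compound for about 90 hours before reading.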 In kind it is functional.
Experiment [12] deals with Vero. Kind of experiment: Vero cell cytotoxicity, cytotoxicity control for flavivirus capping enzyme inhibitors (AID 588742). In kind it is functional. The settings on record: Chlorocebus sabaeus.
Experiment [13] is described as follows: inhibitors of intracellular T. cruzi replication, confirmation, NIH3T3 host cells, beta-gal luminescence (AID 2044).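 Note: intracellular parasites grown in NIH/3T3 mouse fibroblasts as host cells; luminescent beta-galactosidase reporter signal from transgenic T. cruzi replicating inside host cells; inhibitors lower the luminescence signal.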 Type of experiment: functional, cell-based.
For experiment [14], the target named is T4, Streptokinase A (Streptococcus pyogenes serotype M1, UniProt P10520).
T4 sequence (P10520 whole entry): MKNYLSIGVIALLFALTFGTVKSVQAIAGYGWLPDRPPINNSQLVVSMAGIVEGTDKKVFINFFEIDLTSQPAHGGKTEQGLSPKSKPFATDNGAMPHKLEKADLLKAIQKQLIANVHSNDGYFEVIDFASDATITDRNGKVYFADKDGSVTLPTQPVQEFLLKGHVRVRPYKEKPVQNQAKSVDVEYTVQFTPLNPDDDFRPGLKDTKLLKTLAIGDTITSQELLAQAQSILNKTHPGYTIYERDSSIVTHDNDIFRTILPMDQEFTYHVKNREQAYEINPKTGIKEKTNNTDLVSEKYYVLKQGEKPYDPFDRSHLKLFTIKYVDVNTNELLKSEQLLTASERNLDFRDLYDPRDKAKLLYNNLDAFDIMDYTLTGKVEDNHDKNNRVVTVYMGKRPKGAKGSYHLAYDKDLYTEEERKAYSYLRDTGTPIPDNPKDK
Briefly: S. pyogenes streptokinase expression inhibitors, potency, dose response, plasminogen activation absorbance, OD405 (AID 1914).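 Note: secreted streptokinase activity via plasminogen activation per viability signal from cell pellet.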 Type of experiment: functional, Streptococcus pyogenes M1 GAS.

The subject of experiment [15] is Streptococcus sp. 'group A'. Briefly: growth inhibition of control SK(-) GAS strain, dose response, counter-screen for streptokinase expression inhibitor project, luminescence, kanamycin, BacTiterGlo, confirmation (AID 1900). Type of experiment: functional, organism-based.
Experiment [16] has as its target NS3 (Hepatitis C virus, UniProt A3EZJ3). Briefly: PubChem AID 2173. Also noted: species or system Hepacivirus hominis.
Experiment [17] is described as follows: growth suppression of PTEN-null colon cells, dose response, cell-based, HCT116 PTEN knockout (AID 1047).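 Note: HCT116 colon tumor cells with PTEN knocked out; cells exposed to compound for 60 hours before readout; potency for loss of cell viability measured by luminescence.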 In kind it is functional.
Experiment [18] has as its system Streptococcus. Briefly: Group A Streptococcus viability loss, dose response, counter-screen for streptokinase expression inhibitor project, luminescence, BacTiterGlo (AID 1915).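 Note: potency for reduction of bacterial viability or growth.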 Type of experiment: functional, organism-based.
Experiment [19] in a line: growth suppression of beta-catenin-knockout colon cells, dose response, cell-based, HCT116, human colon tumor (AID 1045).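 Note: HCT116 colon tumor cells with beta catenin knocked out; cells exposed to compound for 60 hours.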 In kind it is functional.

Activity calls are given as the source filed them.

Sequence of Keap1/Nrf2 (Q16236 whole entry): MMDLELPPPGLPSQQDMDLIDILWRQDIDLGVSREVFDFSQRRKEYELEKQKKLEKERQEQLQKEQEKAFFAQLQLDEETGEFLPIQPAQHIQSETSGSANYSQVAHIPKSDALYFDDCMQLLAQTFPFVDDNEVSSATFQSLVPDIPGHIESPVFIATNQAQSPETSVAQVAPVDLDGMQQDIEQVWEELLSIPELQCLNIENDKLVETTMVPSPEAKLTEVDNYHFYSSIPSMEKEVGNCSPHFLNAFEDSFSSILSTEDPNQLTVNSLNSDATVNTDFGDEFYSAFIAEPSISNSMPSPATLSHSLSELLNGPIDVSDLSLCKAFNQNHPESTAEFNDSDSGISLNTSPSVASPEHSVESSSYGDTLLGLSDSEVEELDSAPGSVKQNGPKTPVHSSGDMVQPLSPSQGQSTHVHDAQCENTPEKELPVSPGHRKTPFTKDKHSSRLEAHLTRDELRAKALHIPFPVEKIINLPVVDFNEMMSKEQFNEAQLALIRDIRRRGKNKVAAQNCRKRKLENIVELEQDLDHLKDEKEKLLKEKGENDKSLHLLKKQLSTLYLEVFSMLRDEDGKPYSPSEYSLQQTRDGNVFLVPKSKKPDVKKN
Sequence of Keap1/Nrf2 (Q14145 whole entry): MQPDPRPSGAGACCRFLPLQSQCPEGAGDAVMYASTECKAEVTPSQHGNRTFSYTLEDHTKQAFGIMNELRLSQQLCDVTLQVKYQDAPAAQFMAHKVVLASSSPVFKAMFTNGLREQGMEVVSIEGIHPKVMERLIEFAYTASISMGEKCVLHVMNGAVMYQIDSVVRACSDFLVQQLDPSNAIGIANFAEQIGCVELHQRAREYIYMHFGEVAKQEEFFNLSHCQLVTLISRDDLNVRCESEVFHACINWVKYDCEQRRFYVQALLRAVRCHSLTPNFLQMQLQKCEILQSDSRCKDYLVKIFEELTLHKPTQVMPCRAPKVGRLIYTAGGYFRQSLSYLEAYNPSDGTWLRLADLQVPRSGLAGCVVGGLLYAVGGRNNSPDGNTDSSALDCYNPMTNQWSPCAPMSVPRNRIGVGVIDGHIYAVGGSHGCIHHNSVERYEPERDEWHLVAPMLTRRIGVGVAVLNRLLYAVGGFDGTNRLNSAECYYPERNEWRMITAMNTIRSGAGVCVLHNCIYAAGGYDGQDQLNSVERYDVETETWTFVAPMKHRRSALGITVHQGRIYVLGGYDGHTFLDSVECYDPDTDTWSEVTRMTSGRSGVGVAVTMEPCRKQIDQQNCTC
Sequence of NS3 (A3EZJ3 whole entry): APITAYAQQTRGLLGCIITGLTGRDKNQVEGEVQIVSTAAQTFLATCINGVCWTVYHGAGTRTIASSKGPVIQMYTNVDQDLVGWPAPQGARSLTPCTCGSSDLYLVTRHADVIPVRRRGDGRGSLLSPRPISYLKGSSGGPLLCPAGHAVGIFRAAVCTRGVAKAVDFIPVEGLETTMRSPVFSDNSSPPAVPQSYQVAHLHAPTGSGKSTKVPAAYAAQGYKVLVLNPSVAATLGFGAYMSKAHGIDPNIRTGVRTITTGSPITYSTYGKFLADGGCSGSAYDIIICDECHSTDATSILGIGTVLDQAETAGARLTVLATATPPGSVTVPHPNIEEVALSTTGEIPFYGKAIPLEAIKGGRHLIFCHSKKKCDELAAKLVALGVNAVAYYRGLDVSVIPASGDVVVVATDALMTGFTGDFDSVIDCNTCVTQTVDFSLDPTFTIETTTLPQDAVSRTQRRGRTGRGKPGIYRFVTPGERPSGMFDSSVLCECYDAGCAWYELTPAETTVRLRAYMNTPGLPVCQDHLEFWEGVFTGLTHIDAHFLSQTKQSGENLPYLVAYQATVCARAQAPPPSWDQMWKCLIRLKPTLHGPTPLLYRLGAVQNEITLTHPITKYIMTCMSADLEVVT

As usually defined, the IC50 is the concentration needed to halve the response being measured. In the case of `CC(Sc1ccsc1[N+](=O)[O-])C(=O)NCc1ccco1` (stereo unspecified), the IC50 in [1] and in experiment [2] was > 119 µM (inactive) in each case.

Take `CC(=O)OCC(=O)[C@@]1(O)CC[C@H]2[C@@H]3CCC4=CC(=O)C=C[C@]4(C)[C@@]3(Cl)[C@@H](Cl)C[C@@]21C` [DICHLORISONE ACETATE]: the IC50 was > 16 µM (inactive) in experiment [3] and < 0.25 µM (active) in [4].

A word on the AC50: it is the concentration giving half of the maximal activity seen. In general, EC50 refers to the concentration giving half of the maximal effect. On to `Cc1c(N)cc(N)cc1C(=O)O`, for which the IC50 in experiment [5] was > 100 µM (active). The AC50 in experiment [6] is > 52 µM (inactive). The EC50 in experiment [7] was 27.7 µM (active); in [8] it was > 300 µM (not active).

Turning to `Cc1cccc(C2CC(c3ccccc3)Nc3ncnn32)c1` (stereo unspecified), the EC50 in [9] and in experiment [10] was > 59.6 µM (inactive) throughout.

One may read the CC50 as the concentration at which the toxic effect on the cells reaches its halfway point. Turning to `O=C(/C=C/c1ccccc1Cl)c1ccccc(=O)c1O`, the EC50 was 6.37 µM (active) in [11]; 1.22 µM (active) in experiment [13]; > 150 µM (not active) in [14]; 1.61 µM (active) in experiment [15]; 1.29 µM (active) in experiment [17]; 9.56 µM (active) in [18]. Besides, in experiment [19], the EC50 is 1.07 µM (active). Besides, the CC50 in [12] was 9.47 µM (active). The IC50 is 4.43 µM (active) in experiment [3], 3.72 µM (active) in [4] and 4.49 µM (active) in [16].
